Measured values as given in patent US12702715B2, “Targeted RNA degradation allows precision repurposing of protein-targeted small molecule medicines to RNA” (University of Florida Research Foundation, Incorporated, priority 2020, dated 2026).
Entries after “also recorded” stand apart in the source; their conditions may differ.

Experiments:
RNase L = RNase L (Homo sapiens, UniProt Q05823); assay: In vitro RNase L oligomerization; assay type: biochemical
Procedure: In Vitro RNase L Oligomerization. To a solution of RNase L (3 μM) in 1× RNase L Buffer (add components) was added MgCl2, fresh β-mercaptoethanol, and ATP to final concentrations of 10 mM, 7 mM, and 50 μM respectively. The oligomerization of RNase L induced by small molecules was assessed as previously reported^6. The monomeric and oligomeric RNase L protein was resolved by Western blot and detected using an RNase L primary antibody (1:6000 dilution; Cell Signaling Technology, D4B4J). The blot was incubated with the antibody in 1×TBST (Tris-buffered saline supplemented with 0.1% (v/v) Tween-20) and 5% (w/v) nonfat dry milk at 4° C. overnight. After washing, the blot was incubated with 1:12000 anti-rabbit IgG, HRP-linked Antibody (Cell Signaling Technology, 7074S) in 1×TBST with 5% (w/v) nonfat dry milk for 1 h at room temperature. After washing with 1×TBST for 10 min three times, monomeric and oligomerized RNase L protein was detected by using SuperSignal West Pico Chemiluminescent Substrate (Pierce Biotechnology). ImageJ software was used for quantification.

Alport mice (Col4a3−/−) = assay: Alport mice studies; assay type: in vivo, mouse
Procedure: Alport Mice Studies. Alport mice (Col4a3^−/−) and wild type (WT) mice (Col4a3^+/+) were obtained from the breeding of heterozygous […]. Urine was collected 1 day before the treatment, considered as Day 1. The treatment started at Day 2, at around 4 weeks of age. Alport mice were treated with vehicle or 2 as described for NOD/SCID mice in the “In Vivo Studies to Assess Metastasis of Breast Cancer to the Lung” section. Urine was collected every other day for analysis of albumin or creatine levels. After 6 weeks of treatment, the mice were euthanized on Day 43. One kidney was frozen in −80° C. for Western blot and RT-qPCR analyses. The other kidney was fixed in formalin for paraffin-embedding sectioning and further staining.
Evaluation of Kidney Function. The concentration of urine albumin was determined by using a Mouse Albumin ELISA Kit (Bethyl Laboratories Inc, E99-134) per the manufacturer's protocol. Urine creatinine level was measured by using a Urinary Creatinine Assay Kit (Fisher Scientific, 50-673-569) per the manufacturer's protocol.
Kidney Tissue Histology. Silver staining, PAS staining, and PPARα staining were performed by Histology Core at Scripps Research Florida. The anti-PPARα (Abcam, ab215270) was used at 1:1000 dilution. FISH imaging of miR-21 and pre-miR-21 were completed as described in “Lung Tissue Histology”.

pre-miR-21 mutant = assay: In vitro Chem-CLIP, pre-miR-21 mutant; assay type: binding; details: 1, 5, 20 or 100 μM
Procedure: In Vitro Chemical Cross-linking and Isolation by Pull Down (Chem-CLIP) and Competitive Chem-CLIP (C-Chem-CLIP). Growth medium [RMPI 1640 medium with L-glutamine & 25 mM HEPES (Corning)] was inactivated by heating at 95° C. to for 15 min and slowly cooling to room temperature at benchtop. Pre-miR-21 labeled with ^32P at the 5′-end (~10,000 counts) was folded in growth medium by heating at 95° C. for 1 min and slowly cooling to room temperature. To the samples was added Chem-CLIP probe 4 (1, 5, 20 or 100 μM) or negative control probe 5 (1, 5, 20 or 100 μM), and the mixtures were incubated at 37° C. for 1 h. The samples were then cross-linked by irradiation with 365 nm light for 10 min. The Chem-CLIP probe 4 or control probe 5, whether or not cross-linked to the RNA, was then clicked to disulfide biotin azide (10 mM in DMSO; 10 μL per sample; 1168-10, Click Chemistry Tools) by incubating in a solution containing 1×HEPES buffer (25 mM, pH 7), sodium ascorbate (10 μL/sample, 250 mM in H2O), CuSO4 (10 μL/sample, 50 mM in H2O), THPTA (10 μL/sample, 50 mM in H2O) for 2 h at 37° C. […] The radioactive signal from bound RNAs (on the beads) and unbound RNAs (from the wash steps) were measured by using a Beckman Coulter LS6500 Liquid Scintillation Counter. Enrichment of pre-miR-21 was calculated as previously described^6. […]

Sequence of RNase L (Q05823 whole entry, species assumed): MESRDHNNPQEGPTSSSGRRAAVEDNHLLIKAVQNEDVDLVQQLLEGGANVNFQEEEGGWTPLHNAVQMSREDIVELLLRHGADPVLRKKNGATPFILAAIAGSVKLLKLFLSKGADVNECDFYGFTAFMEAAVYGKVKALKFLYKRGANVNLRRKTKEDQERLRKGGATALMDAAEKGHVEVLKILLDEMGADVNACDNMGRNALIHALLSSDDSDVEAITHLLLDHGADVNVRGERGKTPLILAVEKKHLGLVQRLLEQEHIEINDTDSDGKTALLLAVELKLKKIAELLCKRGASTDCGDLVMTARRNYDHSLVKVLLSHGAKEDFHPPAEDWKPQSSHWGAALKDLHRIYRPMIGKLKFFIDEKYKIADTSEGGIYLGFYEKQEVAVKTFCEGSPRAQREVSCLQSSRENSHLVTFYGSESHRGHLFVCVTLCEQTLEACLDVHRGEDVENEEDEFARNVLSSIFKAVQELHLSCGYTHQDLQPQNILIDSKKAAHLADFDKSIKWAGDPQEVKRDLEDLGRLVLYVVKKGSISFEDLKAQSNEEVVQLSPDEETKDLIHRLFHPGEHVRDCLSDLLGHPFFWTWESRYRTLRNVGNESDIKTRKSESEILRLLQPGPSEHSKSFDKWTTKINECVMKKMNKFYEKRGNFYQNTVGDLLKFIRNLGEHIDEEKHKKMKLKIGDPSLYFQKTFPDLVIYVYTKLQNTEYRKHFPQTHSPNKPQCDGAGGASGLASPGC

| Structure (SMILES) | RNase L oligomerization / dimerization (RNase L) | body weight of Alport mice (Alport mice (Col4a3−/−); 56 mg/kg q.o.d.) | urine albumin normalized to urine creatinine (Alport mice (Col4a3−/−); 56 mg/kg, q.o.d., 42 days) | PPARα expression in kidneys (Alport mice (Col4a3−/−); Alport mice) | tubule injury / tubulointerstitial pathology (Alport mice (Col4a3−/−); PAS staining) | pre-miR-21 levels in kidneys (Alport mice (Col4a3−/−); both Alport and WT mice) | mature miR-21 levels in kidneys (Alport mice (Col4a3−/−); both WT and Alport mice, RT-qPCR) | glomerulosclerosis (Alport mice (Col4a3−/−); silver methenamine staining) | enrichment of 32P-labeled pre-miR-21 mutant (pre-miR-21 mutant) |
| --- | --- | --- | --- | --- | --- | --- | --- | --- | --- |
| CCOC(=O)C1=C(Nc2ccccc2)S/C(=C\c2ccc(OCCOCCOCCOCCNC(=O)NCCN3CCN(c4ccc5[nH]c(-c6c(N)c7c(F)cccc7[nH]c6=O)nc5c4)CC3)c(O)c2)C1=O [Compound 2, Ribotac-Dovitinib] | recruits and dimerizes; also recorded: oligomerized RNase L in a dose dependent manner | gained more weight than vehicle-treated mice | stabilized; also recorded: decreased urine albumin concentration | enhanced; also recorded: derepressed | significantly reduced; also recorded: prevented tubule injury | reduced; also recorded: decreased | decreased miR-21 levels; also recorded: reduced | prevents glomerulosclerosis and tubular atrophy; also recorded: significantly reduced |  |
| C#CCCC1(CCC(=O)NCCN2CCN(c3ccc4[nH]c(-c5c(N)c6c(F)cccc6[nH]c5=O)nc4c3)CC2)N=N1 [Compound 4] |  |  |  |  |  |  |  |  | not mutant |
